Data on five molecules can be found in patent US20260355225A1 (priority 2022, published 2026).

Data set [1] is described as follows: Cytotoxicity of D-xylose alone or + insulin, MTT assay, absence of viral infection (Example 2). The conditions noted are these: human, hela tzmbl cells. Background: Tetrazolium assays rely on reduction of a dye to a coloured formazan, in cell work by metabolically active cells.
Data set [2] deals with HeLa TZMBL cells. The description is as above.
Data set [3] can be described thus: Antiviral assay against HIV-1 NL4-3, percentage of infected cells by immunofluorescence (Example 2). Particulars: human, hela tzmbl cells, Viability Percentages, replicate wells.
For data set [4], the system named is HIV-1 NL4-3. The data set is described as above. Particulars: Human immunodeficiency virus 1, NL43, 48 h.
Data set [5] in a line: Cytotoxicity of D-xylose, MTT assay, absence of viral infection (Example 1). The data set is classed as cell-based. The conditions noted are these: monkey, vero cells, remdesivir at the time of infection, read-out: Viability percentage.
Experimental: (§1) Cells (Vero E6) were used, with two modes of administration: either at the same time or 6 h before infection with SARS-CoV-2 (isolated early).
(§2) The readout for this test is CPE, so the infection will be stopped at 72 hpi (hours post-infection), and the compound will remain for the duration of the experiment. In parallel, the cytotoxicity of the same compound concentrations will be tested in the absence of viral infection.
(§3) The day before the experiment, the 8,000 cells/well are seeded in two 96-well plates (clear, Sarstedt), one for the antiviral study and one for the cytotoxicity study.
(§4) 134.4 μl of the 1 M composition is transferred to 1,465.6 μl of infection medium (=84 mM, twice the final maximum concentration).
(§5) Next, the cell support in the cytotoxicity plate is removed.
(§6) Immediately afterwards, 50 μl of undiluted infection medium is added to all the wells.
(§7) Next, 50 μl of infection medium without diluent is added to columns 4 to 6.
(§8) Next, the plate is incubated at 37 °C, 5% CO2 for 48 h.
(§9) After 72 h, when the CPE is evident, an MTT assay is performed for the antiviral and cytotoxicity plates.
The subject of data set [6] is Vero AD cells. The data set is described as above. The conditions noted are these: remdesivir at the time of infection. The data set is classed as cell-based.
Experimental: as §1, §2, §3, §4, §5, §6, §7, §8, §9
The subject of data set [7] is SARS-CoV-2. Description: Antiviral assay, inhibition of virus-induced cytopathic effect (CPE) of SARS-CoV-2 by MTT assay (Example 1). Particulars: remdesivir at the time of infection; for Viability percentage: 4320 min.
The subject of data set [8] is glycated hemoglobin (HbA1c). Particulars: healthy person; cited from earlier work.
Data set [9] relates to SARS-CoV-2. The conditions noted are these: pre-incubation of 25 minutes prior to infection; cited from earlier work.
Where [10] appears, read: AZT 0.002 μM, 2880 min, 0.002 µM.
The mark [11] stands for this setting: AZT 0.007 μM, 2880 min, 0.007 µM.
Where [12] appears, read: AZT 0.062 μM, 2880 min, 0.062 µM.
Where [13] appears, read: AZT 0.556 μM, 2880 min, 0.556 µM.
The mark [14] stands for this setting: AZT 1.667 μM, 2880 min, 1.667 µM.
The mark [15] stands for this setting: Triton added to untreated cells as control.

Values joined by “and” are separate entries in the source; they are usually repeats but may differ in a detail not shown here. Identical values can stand only once.

Turning to `Cc1cn([C@H]2C[C@H](N=[N+]=[N-])[C@@H](CO)O2)c(=O)[nH]c1=O` [AZT, 3-azido-3-deoxythymidine, reference compound], the cytotoxicity at 48 h, 0.007 µM in data set [1] (Cytotoxicity percentage, AZT 0.007 μM) turned out to be 5.07%. Also, the cytotoxicity at 48 h, 0.062 µM in [1] (Cytotoxicity percentage, AZT 0.062 μM) came to 4.36%. The viability at 48 h, 0.002 µM was 102% in data set [1] (Viability percentage, AZT 0.002 μM) and 29.9% in data set [3] (AZT 0.002 μM). The viability at 48 h, 0.007 µM in [1] (Viability percentage, AZT 0.007 μM) worked out at 94.9%; in data set [3] (AZT 0.007 μM) it was 48.2%. Moreover, the viability at 48 h, 0.062 µM in data set [1] (Viability percentage, AZT 0.062 μM) is 95.6%; in data set [3] (AZT 0.062 μM), 74.2%. Moreover, the viability at 48 h, 0.556 µM amounted to 97.6% in [1] (Viability percentage, AZT 0.556 μM) and 92.5% in data set [3] (AZT 0.556 μM). Moreover, the viability at 48 h, 1.667 µM came out at 102% in [1] (Viability percentage, AZT 1.667 μM) and 96.8% in data set [3] (AZT 1.667 μM). Also, the viability at 48 h, 5 µM was found to be 96.9% in data set [1] (Viability percentage, AZT 5.000 μM) and 99.1% in [3] (AZT 5.000 μM). Moreover, the “Results for Cytotoxicity (MTT readout)” value was 2.455 and 2.474 and 2.438 in data set [2] (AZT 0.002 μM); 2.29 and 2.333 and 2.278 in data set [2] (AZT 0.007 μM); 2.307 and 2.356 and 2.337 in data set [2] (AZT 0.062 μM); 2.353 and 2.414 and 2.406 in data set [2] (AZT 0.556 μM); 2.46 and 2.505 and 2.469 in data set [2] (AZT 1.667 μM); 2.337 and 2.402 and 2.36 in data set [2] (AZT 5.000 μM). For the same molecule, the Cytotoxicity percentage in [2] (setting [10]) was −1.89% and −2.69% and −1.17%; in data set [2] (setting [11]) it was 3.26% and 5.58%; in data set [2] (setting [12]) it was 2.29% and 3.09%; in data set [2] (setting [13]), 2.42% and −0.16% and 0.18%; in data set [2] (setting [14]) it was −2.10% and −4.00% and −2.48%; in data set [2] (AZT 5.000 μM, 2880 min, 5 µM), 3.09% and 0.35% and 2.12%. The Viability percentage in data set [2] (setting [10]) is 102.69% and 101.17%; in data set [2] (setting [11]), 96.74% and 94.42%; in data set [2] (setting [12]), 97.71%; in [2] (setting [13]) it was 100.16% and 99.82%; in data set [2] (setting [14]) it was 104.00% and 102.48%; in [2] (AZT 5.000 μM, 2880 min, 5 µM), 99.65% and 97.88%. For the same molecule, the activity at 0.002 µM in data set [4] (read-out: % Infection, AZT 0.002 μM, replicate wells) came out at 13.3%. For the same molecule, the activity at 0.007 µM in data set [4] (read-out: % Infection, AZT 0.007 μM, replicate wells) amounted to 9.89%. Moreover, in [4] (read-out: % Infection, AZT 0.062 μM, replicate wells), the activity at 0.062 µM was determined as 5.07%. In addition, in data set [4] (read-out: % Infection, AZT 0.556 μM, replicate wells), the activity at 0.556 µM came to 1.7%. Further, in data set [4] (read-out: % Infection, AZT 1.667 μM, replicate wells), the activity at 1.667 µM came to 0.89%. The activity at 5 µM in data set [4] (read-out: % Infection, AZT 5.000 μM, replicate wells) was 0.47%.
Take `CCC(CC)COC(=O)[C@H](C)N[P@](=O)(OC[C@H]1O[C@@](C#N)(c2ccc3c(N)ncnn23)[C@H](O)[C@@H]1O)Oc1ccccc1` [Remdesivir, reference compound]: the viability at […] in [5] (0.16 μm) is 100%. The viability at 0.31 µM in data set [5] (0.31 μm) is 106%. Further, in data set [5] (0.63 μm), the viability at 0.63 µM is 102%. For the same molecule, the viability at 1.25 µM in data set [5] (1.25 μm) stood at 103%. In addition, the viability at 2.5 µM in [5] (2.5 μm) was 112%. Also, the viability at 5 µM in data set [5] (5 μm) is 110%. Besides, in [5] (10 μm), the viability at 10 µM amounted to 105%. In addition, the viability at 20 µM in [5] (20 μm) was 101%. Further, the Viability percentage in data set [6] (0.31 μm) was 99.84%; in data set [6] (0.63 μm) it was 108.33%; in data set [6] (1.25 μm), 110.83% and 112.82%; in [6] (2.5 μm), 107.83% and 115.32%; in [6] (5 μm), 122.31%; in data set [6] (10 μm), 106.83%. Besides, the Viability percentage in data set [6] (20 μm) was 94.35% and 93.35%; in [7] (1.25 μm) it was 47.72% and 46.55% and 58.30%; in data set [7] (2.5 μm) it was 92.36% and 106.46% and 126.43%; in data set [7] (5 μm) it was 101.76% and 129.96% and 149.93%; in data set [7] (10 μm) it was 118.21% and 95.89% and 131.13%; in data set [7] (20 μm) it was 80.62% and 86.49% and 79.44%. Besides, the “absorbance at 570 nm” value is 0.086 and 0.077 and 0.078 in data set [7] (0.16 μm); 0.084 and 0.098 in [7] (0.31 μm); 0.094 in data set [7] (0.63 μm); 0.127 and 0.137 and 0.128 in data set [7] (1.25 μm); 0.178 and 0.195 in [7] (2.5 μm); 0.198 and 0.215 and 0.174 in data set [7] (5 μm). Also, the “absorbance at 570 nm” value in data set [7] (10 μm) is 0.169 and 0.199 and 0.188.
As to `OC[C@@H](O)[C@H](O)[C@@H](O)CO` [xylitol, reference compound], the “effect on glycated hemoglobin (HbA1c) levels” value in [8] is listed as “little or no effect”.
On to Triton [reference compound], for which, in [2] (setting [15]), the Cytotoxicity percentage was 99.99% and 100.03%; the “Results for Cytotoxicity (MTT readout)” value was 0.040 and 0.039; the Viability percentage was 0.01% and −0.03%.
heparin: the “inhibition of SARS-CoV-2 viral attachment” value in [9] is reported as “inhibits SARS-CoV-2 viral attachment”.

For orientation: viability means a read-out of living cells in per cent, often relative to untreated cells.
